In PubChem BioAssay AID330 (DTP/NCI, 2004):
Where “and” joins values, the source holds several entries; their conditions need not be identical. Identical values can stand only once. Toxic doses and inconclusive results are not listed. The calls were made as follows: active = survival T/C of 150% or more; inactive = T/C below 125% in these data. Peptide text beside a SMILES is read from it.

System: P388 leukemia ip, CD2F1 mice, survival T/C
Assay: NCI In Vivo Anticancer Drug Screen. Data for tumor model P388 Leukemia (intraperitoneal) in CD2F1 (CDF1) mice
Conditions: endpoint: median survival time, higher = longer survival
Procedure, shortened: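 Mice carrying the transplanted tumor received test compound or vehicle. Survival was recorded in each group, and the value is the treated-group measurement divided by that of the vehicle-treated control group.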

[1] = dose: 50.0 mg/kg/injection, schedule: Q01DX005 (ip), vehicle: Klucel (hydroxypropylcellulose) (HPC)
[2] = dose: 100.0 mg/kg/injection, schedule: Q01DX005 (ip), vehicle: Klucel (hydroxypropylcellulose) (HPC)
[3] = dose: 200.0 mg/kg/injection, schedule: Q01DX005 (ip), vehicle: Klucel (hydroxypropylcellulose) (HPC)
[4] = dose: 50.0 mg/kg/injection, schedule: Q01DX005 (ip), vehicle: distilled water + alcohol
[5] = dose: 100.0 mg/kg/injection, schedule: Q01DX005 (ip), vehicle: distilled water + alcohol
[6] = dose: 200.0 mg/kg/injection, schedule: Q01DX005 (ip), vehicle: distilled water + alcohol
[7] = dose: 50.0 mg/kg/injection, schedule: Q01DX005 (ip), vehicle: saline with Tween-80
[8] = dose: 100.0 mg/kg/injection, schedule: Q01DX005 (ip), vehicle: saline with Tween-80
[9] = dose: 200.0 mg/kg/injection, schedule: Q01DX005 (ip), vehicle: saline with Tween-80

Measured: T/C

C=C1C(=O)O[C@@H]2C[C@H](C)[C@@H]3CC[C@H](O)[C@@]3(CO)C[C@H]12
inactive: dose: 12.5 mg/kg/injection, schedule: Q01DX005 (ip), vehicle: Klucel (hydroxypropylcellulose) (HPC) 102 % of control | dose: 25.0 mg/kg/injection, schedule: Q01DX005 (ip), vehicle: Klucel (hydroxypropylcellulose) (HPC) 102 % of control | [1] 103 % of control and 104 % of control | [2] 114 % of control | [3] 122 % of control

C[C@@H]1C[C@H]2C(=CC1=O)CC[C@@H]1[C@@H]2CC[C@]2(C)[C@@H](O)CC[C@@H]12
inactive: dose: 100.0 mg/kg/injection, schedule: Q04DX003 (ip), vehicle: saline with Tween-80 100 % of control | dose: 200.0 mg/kg/injection, schedule: Q04DX003 (ip), vehicle: saline with Tween-80 109 % of control | dose: 400.0 mg/kg/injection, schedule: Q04DX003 (ip), vehicle: saline with Tween-80 100 % of control

Nc1nc(F)nc2c1ncn2CC(O)CO (configuration not stated)
inactive: [4] 100 % of control | [5] 101 % of control | [6] 95 % of control

O=C1NC2CSC(CCCCC(=O)ON3C(=O)CCC3=O)C2N1 (configuration not stated)
inactive: [7] 104 % of control | [8] 116 % of control | [9] 116 % of control

CCN(CC)c1ccc2nc3ccc(N=Nc4ccc(O)cc4)cc3[n+](-c3ccccc3)c2c1
inactive: [7] 118 % of control | [8] 114 % of control

c1ccc(C2=NC(=c3ccc(=C4N=C(c5ccccc5)C(c5ccccc5)=N4)cc3)N=C2c2ccccc2)cc1
inactive: dose: 60.0 mg/kg/injection, schedule: Q01DX005 (ip), vehicle: Klucel (hydroxypropylcellulose) (HPC) 90 % of control | dose: 120.0 mg/kg/injection, schedule: Q01DX005 (ip), vehicle: Klucel (hydroxypropylcellulose) (HPC) 90 % of control | dose: 240.0 mg/kg/injection, schedule: Q01DX005 (ip), vehicle: Klucel (hydroxypropylcellulose) (HPC) 100 % of control

O=[N+]([O-])c1cc(I)c(O)c(/C=N/NS(=O)(=O)c2ccc(Cl)cc2)c1
inactive: [7] 101 % of control | [8] 100 % of control

COc1ccc(OC(=O)Nc2ccc(Cl)c(C(F)(F)F)c2)c(Cl)c1
inactive: dose: 1.56 mg/kg/injection, schedule: Q01DX009 (ip), vehicle: saline 100 % of control | dose: 3.12 mg/kg/injection, schedule: Q01DX009 (ip), vehicle: saline 94 % of control | dose: 6.25 mg/kg/injection, schedule: Q01DX009 (ip), vehicle: saline 88 % of control and 95 % of control | dose: 12.5 mg/kg/injection, schedule: Q01DX009 (ip), vehicle: saline 96 % of control | dose: 25.0 mg/kg/injection, schedule: Q01DX009 (ip), vehicle: saline 93 % of control | dose: 100.0 mg/kg/injection, schedule: Q01DX009 (ip), vehicle: saline + alcohol 101 % of control | dose: 200.0 mg/kg/injection, schedule: Q01DX009 (ip), vehicle: saline + alcohol 100 % of control

CC(C)(C)c1cc(C(C)(C)O)c2c(c1)C(C)(C)OS2(=O)=O
inactive: dose: 100.0 mg/kg/injection, schedule: Q04DX002 (ip), vehicle: Klucel (hydroxypropylcellulose) (HPC) 96 % of control | dose: 200.0 mg/kg/injection, schedule: Q04DX002 (ip), vehicle: Klucel (hydroxypropylcellulose) (HPC) 87 % of control | dose: 400.0 mg/kg/injection, schedule: Q04DX002 (ip), vehicle: Klucel (hydroxypropylcellulose) (HPC) 97 % of control

O=C(OCCS(=O)(=O)CCOC(=O)ON1C(=O)CCC1=O)ON1C(=O)CCC1=O
inactive: [1] 109 % of control | [2] 109 % of control | [3] 115 % of control

COc1ccc(C=C2C=C(C(C)(C)C)C(=O)C(C(C)(C)C)=C2)cc1
inactive: [4] 108 % of control | [5] 96 % of control | [6] 108 % of control

CN(C)CCC1(C)OCCC2=C1Cc1ccccc12 (configuration not stated)
inactive: dose: 50.0 mg/kg/injection, schedule: Q01DX009 (ip), vehicle: saline with Tween-80 91 % of control | dose: 100.0 mg/kg/injection, schedule: Q01DX009 (ip), vehicle: saline with Tween-80 99 % of control

Cc1ccc2oc(C(=O)Nc3nnc(-c4ccccc4)s3)cc(=O)c2c1
inactive: [7] 96 % of control | [8] 94 % of control | [9] 94 % of control

Fc1c(F)c(F)c(SN=S=Nc2ccccc2)c(F)c1F
inactive: [1] 106 % of control | [2] 108 % of control

CC(O)C(N)C(=O)NC(C(=O)NC(C(=O)O)C(C)O)C(C)O (stereo not drawn) (H-Thr-Thr-Thr-OH; configuration not given here)
inactive: dose: 50.0 mg/kg/injection, schedule: Q01DX005 (ip), vehicle: saline 104 % of control | dose: 100.0 mg/kg/injection, schedule: Q01DX005 (ip), vehicle: saline 92 % of control | dose: 200.0 mg/kg/injection, schedule: Q01DX005 (ip), vehicle: saline 104 % of control
